According to PubChem BioAssay (NCI):
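Cells were grown in 96-well plates and exposed to each compound for 48 hours at five concentrations; endpoints were interpolated linearly between bracketing concentrations, or set to the highest concentration if not reached. At the GI50, growth is halved. Definition used: TGI = concentration required for complete inhibition of growth.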

Key:
Experiment in all cases: NCI-60 cell line screen, 48 h
786-0 renal = test system: 786-0 renal
A498 renal = test system: A498 renal
A549 NSCLC = test system: A549 NSCLC
ACHN renal = test system: ACHN renal
BT-549 breast = test system: BT-549 breast
CAKI-1 renal = test system: CAKI-1 renal
COLO 205 colon = test system: COLO 205 colon
DU-145 prostate = test system: DU-145 prostate
EKVX NSCLC = test system: EKVX NSCLC
HCC-2998 colon = test system: HCC-2998 colon
HCT-116 colon = test system: HCT-116 colon
HCT-15 colon = test system: HCT-15 colon
HL-60(TB) leukemia = test system: HL-60(TB) leukemia
HOP-62 NSCLC = test system: HOP-62 NSCLC
HOP-92 NSCLC = test system: HOP-92 NSCLC
HS 578T breast = test system: HS 578T breast
HT29 colon = test system: HT29 colon
IGROV1 ovarian = test system: IGROV1 ovarian
K-562 leukemia = test system: K-562 leukemia
KM12 colon = test system: KM12 colon
LOX IMVI melanoma = test system: LOX IMVI melanoma
M14 melanoma = test system: M14 melanoma
MALME-3M melanoma = test system: MALME-3M melanoma
MCF7 breast = test system: MCF7 breast
MDA-MB-231 breast = test system: MDA-MB-231 breast
MDA-MB-435 = test system: MDA-MB-435
MOLT-4 leukemia = test system: MOLT-4 leukemia
NCI-H226 lung = test system: NCI-H226 lung
NCI-H460 lung = test system: NCI-H460 lung
NCI-H522 lung = test system: NCI-H522 lung
NCI/ADR-RES ovarian = test system: NCI/ADR-RES ovarian
OVCAR-3 ovarian = test system: OVCAR-3 ovarian
OVCAR-4 ovarian = test system: OVCAR-4 ovarian
OVCAR-5 ovarian = test system: OVCAR-5 ovarian
OVCAR-8 ovarian = test system: OVCAR-8 ovarian
PC-3 prostate = test system: PC-3 prostate
RPMI-8226 leukemia = test system: RPMI-8226 leukemia
RXF 393 renal = test system: RXF 393 renal
SF-268 CNS = test system: SF-268 CNS
SF-295 CNS = test system: SF-295 CNS
SF-539 CNS = test system: SF-539 CNS
SK-MEL-2 melanoma = test system: SK-MEL-2 melanoma
SK-MEL-28 melanoma = test system: SK-MEL-28 melanoma
SK-MEL-5 melanoma = test system: SK-MEL-5 melanoma
SK-OV-3 ovarian = test system: SK-OV-3 ovarian
SN12C renal = test system: SN12C renal
SNB-19 CNS = test system: SNB-19 CNS
SNB-75 CNS = test system: SNB-75 CNS
SR leukemia = test system: SR leukemia
SW-620 colon = test system: SW-620 colon
T-47D breast = test system: T-47D breast
TK-10 renal = test system: TK-10 renal
U251 CNS = test system: U251 CNS
UACC-257 melanoma = test system: UACC-257 melanoma
UACC-62 melanoma = test system: UACC-62 melanoma
UO-31 renal = test system: UO-31 renal

## CC(=O)Oc1ccccc1C(=O)Nc1ccc(C(=O)/C=C/c2ccncc2)cc1
786-0 renal
  GI50: > 100 µM
  TGI: > 100 µM
A498 renal
  GI50: > 100 µM
  TGI: > 100 µM
A549 NSCLC
  GI50: > 100 µM
  TGI: > 100 µM
ACHN renal
  GI50: 59.7 µM
  TGI: > 100 µM
BT-549 breast
  GI50: 25.1 µM
  TGI: > 100 µM
CAKI-1 renal
  GI50: 42.8 µM
  TGI: > 100 µM
COLO 205 colon
  GI50: 38.1 µM
  TGI: > 100 µM
DU-145 prostate
  GI50: 58.2 µM
  TGI: > 100 µM
EKVX NSCLC
  GI50: > 100 µM
  TGI: > 100 µM
HCC-2998 colon
  GI50: 22.2 µM
  TGI: 55.2 µM
HCT-116 colon
  GI50: 13.3 µM
  TGI: 28.2 µM
HCT-15 colon
  GI50: 25.7 µM
  TGI: > 100 µM
HL-60(TB) leukemia
  GI50: 34.8 µM
  TGI: > 100 µM
HOP-62 NSCLC
  GI50: > 100 µM
  TGI: > 100 µM
HOP-92 NSCLC
  GI50: 4.6 µM
  TGI: > 100 µM
HS 578T breast
  GI50: 57.4 µM
  TGI: > 100 µM
HT29 colon
  GI50: 30.5 µM
  TGI: > 100 µM
IGROV1 ovarian
  GI50: 51.7 µM
  TGI: > 100 µM
K-562 leukemia
  GI50: 22.7 µM
  TGI: > 100 µM
KM12 colon
  GI50: 25.9 µM
  TGI: > 100 µM
LOX IMVI melanoma
  GI50: 12.8 µM
  TGI: 34.8 µM
M14 melanoma
  GI50: 40.8 µM
  TGI: > 100 µM
MALME-3M melanoma
  GI50: > 100 µM
  TGI: > 100 µM
MCF7 breast
  GI50: 6.13 µM
  TGI: > 100 µM
MDA-MB-231 breast
  GI50: > 100 µM
  TGI: > 100 µM
MDA-MB-435
  GI50: 27.8 µM
  TGI: > 100 µM
MOLT-4 leukemia
  GI50: 40.2 µM
  TGI: > 100 µM
NCI-H226 lung
  GI50: > 100 µM
  TGI: > 100 µM
NCI-H460 lung
  GI50: 36.6 µM
  TGI: > 100 µM
NCI-H522 lung
  GI50: > 100 µM
  TGI: > 100 µM
NCI/ADR-RES ovarian
  GI50: > 100 µM
  TGI: > 100 µM
OVCAR-3 ovarian
  GI50: 36.1 µM
  TGI: > 100 µM
OVCAR-4 ovarian
  GI50: 85.8 µM
  TGI: > 100 µM
OVCAR-5 ovarian
  GI50: > 100 µM
  TGI: > 100 µM
OVCAR-8 ovarian
  GI50: > 100 µM
  TGI: > 100 µM
PC-3 prostate
  GI50: 49.8 µM
  TGI: > 100 µM
RPMI-8226 leukemia
  GI50: 15 µM
  TGI: 49.2 µM
RXF 393 renal
  GI50: 24.4 µM
  TGI: 98.9 µM
SF-268 CNS
  GI50: 61.8 µM
  TGI: > 100 µM
SF-295 CNS
  GI50: > 100 µM
  TGI: > 100 µM
SF-539 CNS
  GI50: 30.5 µM
  TGI: > 100 µM
SK-MEL-2 melanoma
  GI50: > 100 µM
  TGI: > 100 µM
SK-MEL-28 melanoma
  GI50: > 100 µM
  TGI: > 100 µM
SK-MEL-5 melanoma
  GI50: > 100 µM
  TGI: > 100 µM
SK-OV-3 ovarian
  GI50: > 100 µM
  TGI: > 100 µM
SN12C renal
  GI50: 55.3 µM
  TGI: > 100 µM
SNB-19 CNS
  GI50: > 100 µM
  TGI: > 100 µM
SNB-75 CNS
  GI50: > 100 µM
  TGI: > 100 µM
SR leukemia
  GI50: 22.4 µM
  TGI: 89.5 µM
SW-620 colon
  GI50: 24.3 µM
  TGI: > 100 µM
T-47D breast
  GI50: 60 µM
  TGI: > 100 µM
TK-10 renal
  GI50: > 100 µM
  TGI: > 100 µM
U251 CNS
  GI50: 35.6 µM
  TGI: > 100 µM
UACC-257 melanoma
  GI50: > 100 µM
  TGI: > 100 µM
UACC-62 melanoma
  GI50: > 100 µM
  TGI: > 100 µM
UO-31 renal
  GI50: 63.2 µM
  TGI: > 100 µM
